Test results reported in patent publication US4743609A, “Indole derivatives having gastric and antisecretory and cytoprotective properties, and pharmaceutical preparations containing same” (Banyu Pharmaceutical Co., Ltd., priority 1985, dated 1988).
Like-named read-outs stand apart in the source and are kept apart here.

Assays:
rabbit gastric glands = experiment: Inhibitory effects on aminopyrine uptake into gastric glands; format: cell-based; settings: Oryctolagus cuniculus, 0.5 h, 37° C., 30 minutes, untreated control = 100%; for activity at 100 µM: 10^-4 M test compound; for activity at 10 µM: 10^-5 M test compound; for activity at 1 µM: 10^-6 M test compound
Excerpt: The production of gastric acid in the gastric mucosa is known to be performed by the parietal cells which are one kind of the cells constituting the gastric glands. The extent of the gastric acid secretion by the parietal cells has been deduced to be proportional to the rate of aminopyrine uptake into the gastric glands. Accordingly, the investigation of aminopyrine uptake into the gastric glands has been generally used as the indirect method for measuring the gastric acid secretion. Therefore, suspension of the rabbit gastric glands was prepared according to the method of Berglindh et al (see "Acta Physiol. Scand." 97, 401-414 (1976)). […] After this incubation, the reaction mixture obtained was centrifuged so that the gastric glands were spun down and separated from the incubation mixture. The gastric glands so collected were liophylized and the dry weight of the glands was measured. […] The so determined value of the radio-activity was assumed as the concentration or level of the aminopyrine uptaken into the gastric glands. According to the report of Berglindh et al (see "Acta Physiol. […] The radio-activity of the supernatant of the incubation mixture was determined in the same manner as above by the liquid scintillation counter, and the so determined value of the radio-activity of the supernatant was assumed to be the concentration or level of the aminopyrine present in the extraglandular water with the assumption that the so determined concentration of the aminopyrine in the supernatant was a measure of showing the quantity of the aminopyrine remaining not uptaken into gastric glands. Rate of aminopyrine uptake into gastric glands was calculated according to the following equation: [formula] The above experiment was repeated without the test compound as the Control test (untreated with test compound), and the rate of aminopyrine uptake as determined for this control test (untreated) was assumed to be 100%. The value (% of Control) was taken as showing the inhibitory effects of the test compound on the acid secretion. As a comparative drug, omeprazole was tested in the same way as above.

gastric mucosa = experiment: Preventing the gastric ulcer induced by ethanol-hydrochloric acid (gastric cytoprotection); format: in vivo, SD-strain rats; settings: Rattus norvegicus, po, rats; 30 minutes before 0.2N hydrochloric acid-50% aqueous ethanol; read-out: ED50 effective for 50% inhibition to the formation of necrotic lesions
Description: Thus, according to the method of Robert et al (see "Gastroenterology" 77, 433-443 (1979)), SD-strain rats (male, weighing 200 to 220 g, 8 rats in each group) were deprived of food for 24 hours and deprived of water for 19 hours. The rats were then administered orally with a suspension of the test compound in aqueous 0.5% carboxymethylcellulose solution at a dosage of 6, 10 or 20 mg/kg of the test compound. […] One hour after the administration of the ethanolic hydrochloric acid, the rats were killed. Their stomacks were dissected out, and the lower part of the esophagus was nipped with a clip. Aqueous 1% formalin solution (12.0 ml) was poured into the stomacks from duodenum and then the duodenal part was nipped by a clip. The whole stomacks were immersed in aqueous 1% formalin solution for about 10 minutes for the fixation, the pyloric stomacks were opened along the greater curvature and then rinsed with water. The gastric mucosa was examined and the necrotic lesions or errosions as formed in the glandular stomack and in the pylorus were examined under anatomic microscope to determine the length (in mm) of the lesions. From the test results obtained by the above procedure, the ED50 value of the tested compound effective for 50% inhibition to the formation of necrotic lesions was evaluated. Omeprazole as the comparative drug was tested in the same manner as above.

H^+,K^+ -ATPase = biological target: T1, H^+,K^+ -ATPase (Oryctolagus cuniculus, UniProt P27112); experiment: Inhibitory effects on the enzymatic activity of H^+,K^+ -ATPase; format: biochemical, rabbit
T1 construct: The rabbit gastric glands were homogenized and the microsomal fractions were prepared; from tissue; host or cells: rabbit gastric glands, light membrane fraction between 30% and 40% sucrose
T1 sequence (P27112 whole entry): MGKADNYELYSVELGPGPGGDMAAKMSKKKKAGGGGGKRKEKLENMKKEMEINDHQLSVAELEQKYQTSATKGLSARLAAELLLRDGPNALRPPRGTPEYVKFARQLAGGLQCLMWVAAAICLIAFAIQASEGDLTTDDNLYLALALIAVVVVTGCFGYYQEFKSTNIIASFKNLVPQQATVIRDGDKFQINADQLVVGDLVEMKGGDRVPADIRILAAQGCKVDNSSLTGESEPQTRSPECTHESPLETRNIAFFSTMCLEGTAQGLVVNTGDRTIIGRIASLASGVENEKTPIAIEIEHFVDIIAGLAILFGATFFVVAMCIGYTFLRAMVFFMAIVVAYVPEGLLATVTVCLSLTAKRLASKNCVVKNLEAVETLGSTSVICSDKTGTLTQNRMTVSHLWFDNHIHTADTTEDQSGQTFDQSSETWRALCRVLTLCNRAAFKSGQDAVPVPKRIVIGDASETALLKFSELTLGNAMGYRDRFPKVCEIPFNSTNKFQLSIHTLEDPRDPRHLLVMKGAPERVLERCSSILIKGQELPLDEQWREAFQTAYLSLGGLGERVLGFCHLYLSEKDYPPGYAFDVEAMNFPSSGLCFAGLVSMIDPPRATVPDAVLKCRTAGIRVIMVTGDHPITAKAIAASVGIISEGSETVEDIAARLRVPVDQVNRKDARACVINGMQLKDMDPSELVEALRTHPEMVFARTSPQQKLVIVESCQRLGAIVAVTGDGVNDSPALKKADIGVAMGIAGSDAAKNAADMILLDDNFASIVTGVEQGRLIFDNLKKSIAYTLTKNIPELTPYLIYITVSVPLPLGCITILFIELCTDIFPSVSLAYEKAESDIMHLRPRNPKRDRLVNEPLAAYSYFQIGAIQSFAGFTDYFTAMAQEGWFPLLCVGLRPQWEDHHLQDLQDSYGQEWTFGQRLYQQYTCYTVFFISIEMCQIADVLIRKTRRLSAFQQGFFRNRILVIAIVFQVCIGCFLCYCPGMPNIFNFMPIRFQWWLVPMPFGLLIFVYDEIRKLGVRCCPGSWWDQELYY
T1 sequence (P18597 whole entry partner): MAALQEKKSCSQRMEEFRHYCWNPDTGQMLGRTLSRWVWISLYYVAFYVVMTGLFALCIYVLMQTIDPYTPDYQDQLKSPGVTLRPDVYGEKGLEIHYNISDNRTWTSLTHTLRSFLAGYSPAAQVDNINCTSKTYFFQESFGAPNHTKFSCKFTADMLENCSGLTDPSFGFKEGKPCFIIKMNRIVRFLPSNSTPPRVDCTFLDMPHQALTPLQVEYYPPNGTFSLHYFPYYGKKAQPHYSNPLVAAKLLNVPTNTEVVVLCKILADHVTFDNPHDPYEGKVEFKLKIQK
Description: The rabbit gastric glands were homogenized and the microsomal fractions were prepared by differential centrifugation of the resultant homogenate. The microsomal fractions were layered on a linear continuous sucrose gradient ranging from 20 to 55% (W/V) sucrose and centrifuged to obtain the light membrane fractions sedimenting between 30% sucrose and 40% sucrose. The light membrane fractions containing the H^+,K^+ -ATPase so obtained were used to estimate the inhibitory effects of the new compound of this invention or omeprazole on the enzymatic activity of H^+,K^+ -ATPase. Test compounds were pre-incubated with the reaction mixture containing the enzyme (20-50 μg as protein) for 30 minutes at 37° C. After this, the enzymatic activity of the reaction mixture was determined by incubating for 20 minutes at 37° C. with the following reactant mixture comprising 10 mM MgCl2, 10 mM ATP disodium salt and 400 mM Tris-HCl (pH 7.3) with or without 50 mM KCl.

gastric acid secretion = experiment: Gastric acid antisecretory activity (tetragastrin-stimulated secretion); format: in vivo, Donryu-strain rats; settings: for ED50: Rattus norvegicus, iv, anaesthetized rats, tetragastrin 5 μg/kg, read-out: ED50 effective for 50% inhibition of the gastric acid secretion
Description: The bilateral vagus nerves in the cervical region of the rats were surgically cut and cannulas were inserted into the pylorus and also into the esophagus, respectively, and tied in place according to the method of Ghosh and Schild (see "Brit. J. Pharmacol." 13, 54 (1958)). Aqueous 0.9% saline solution (pH 8.5) as warmed to 40° C. was passed through the […] cannula into the stomack at a rate of 1 ml/min. for the perfusion. The pH value of the effluent coming from the pyloral cannula was measured. At the stage when the pH value of said effluent became steady, 5 μg/kg of tetragastrin, a stimulant for the gastric acid secretion, was administered through a cannula which had been inserted into the cervical vein. After the administration of tetragastrin,the decreasing change of pH value in the effluent was measured at constant intervals of time. Subsequently, a solution of the test compound in methanol was intraveously administered to the rat, and 15 minutes later tetragastrin was again administered. From the test data of the pH measurements so obtained was evaluated the ED50 value of the tested compound effective for 50% inhibition of the gastric acid secretion.

[1] = pre-incubated 30 minutes at 37° C., pH 7.3, with or without 50 mM KCl, read-out: IC50 value required for 50% inhibition of the enzymatic activity

| Structure (SMILES) | activity at 100 µM (rabbit gastric glands) [%] | activity at 10 µM (rabbit gastric glands) [%] | activity at 1 µM (rabbit gastric glands) [%] | ED50 (gastric mucosa) [mg/kg] | H^+,K^+ -ATPase inhibition (in words) (H^+,K^+ -ATPase) | IC50 (H^+,K^+ -ATPase; [1]) [µM] | ED50 (gastric acid secretion) [mg/kg] | IC50 (H^+,K^+ -ATPase) [µM] | gastric acid antisecretory activity (in words) (gastric acid secretion; rat, in vivo) |
| --- | --- | --- | --- | --- | --- | --- | --- | --- | --- |
| Cc1cnc(CSc2cc3cc(C(F)(F)F)ccc3[nH]2)cc1N1CCCCC1 [Example 7, 5-trifluoromethyl-2-[(5-methyl-4-piperidino-2-pyridyl)methylthio]indole] | 14 | 17 | 55 | 9.77 |  |  |  |  |  |
| CN(C)c1ccnc(CSc2c[nH]c3ccccc23)c1 [Example 2, 3-[(4-dimethylamino-2-pyridyl)methylthio]indole] | 24 | 72 | 111 |  |  |  |  |  |  |
| Cc1cnc(C[S+]([O-])c2cc3ccccc3[nH]2)cc1N1CCCCC1 (centres unmarked) [Example 3, 2-[(5-methyl-4-piperidino-2-pyridyl)methylsulfinyl]indole] | 54 | 64 | 99 |  |  |  |  |  |  |
| Cc1cnc(CSc2cc3ccccc3[nH]2)cc1N1CCOCC1 [Example 11, 2-[(5-methyl-4-morpholino-2-pyridyl)methylthio]indole] | 3 | 56 | 106 |  |  |  |  |  |  |
| Oc1ccnc(CSc2c[nH]c3ccccc23)c1 [Example 39, 3-[(4-hydroxy-2-pyridyl)methylthio]indole] | 105 | 109 | 120 |  |  |  |  |  |  |
| Clc1ccnc(CSc2c[nH]c3ccccc23)c1 [Example 37, 3-[(4-chloro-2-pyridyl)methylthio]indole] | 95 | 105 | 114 |  |  |  |  |  |  |
| c1ccc2[nH]c(SCc3cc(N4CCCCC4)ccn3)cc2c1 [Example 22, 2-[(4-piperidino-2-pyridyl)methylthio]indole] |  |  |  | 8.13 |  |  |  |  |  |
| CCOC(=O)c1ccc2[nH]c(SCc3cc(N4CCCCC4)c(C)cn3)cc2c1 [Example 9, 5-ethoxycarbonyl-2-[(5-methyl-4-piperidino-2-pyridyl)methylthio]indole] | 15 | 20 | 61 |  |  |  |  |  |  |
| Cc1cnc(CSc2cc3ccccc3n2C)cc1N1CCCCC1 [Example 4, 1-methyl-2-[(5-methyl-4-piperidino-2-pyridyl)methylthio]indole] | 7 | 8 | 50 |  |  |  |  |  |  |
| CN(C)c1ccnc(CSc2cc3ccccc3[nH]2)c1 [Example 13, 2-[(4-Dimethylamino-2-pyridyl)methylthio]indole] | 3 | 48 | 118 | 9.17 | H^+,K^+ -ATPase inhibitors | 700 |  |  |  |
| Cc1cnc(CSc2cc3cc(F)ccc3[nH]2)cc1N1CCCCC1 [Example 6, 5-fluoro-2-[(5-methyl-4-piperidino-2-pyridyl)methylthio]indole] | 14 | 76 | 48 | 12.7 |  |  |  |  |  |
| Cc1cnc(CSc2cc3ccccc3[nH]2)cc1N1CCCC1 [Example 12, 2-[(5-methyl-4-pyrrolidino-2-pyridyl)methylthio]indole] | 10 | 11 | 48 |  |  |  |  |  |  |
| CCOC(=O)c1ccnc(CSc2c[nH]c3ccccc23)c1 [Example 38, 3-[(4-ethoxycarbonyl-2-pyridyl)methylthio]indole] | 141 | 103 | 120 |  |  |  |  |  |  |
| COc1ccc2nc([S+]([O-])Cc3ncc(C)c(OC)c3C)[nH]c2c1 (centres unmarked) [Omeprazole, 2-[(3,5-dimethyl-4-methoxy-2-pyridyl)methylsulfinyl]-5-methoxybenzimidazole, reference compound] | 18 | 25 | 34 | 34.1 |  |  | 0.24 | 9.4 |  |
| Cc1c(N2CCCCC2)ccnc1CSc1cc2ccccc2[nH]1 [Example 10, 2-[(3-methyl-4-piperidino-2-pyridyl)methylthio]indole] | 4 | 19 | 71 |  |  |  |  |  |  |
| Cc1cnc(CSc2cc3ccccc3[nH]2)cc1N1CCCCC1 [Example 1, 2-[(5-methyl-4-piperidino-2-pyridyl)methylthio]indole] | 7 | 14 | 44 | 11.5 | H^+,K^+ -ATPase inhibitors | 50 | 7.58 |  | remarkedly milder than that of opeprazole |
| Cc1cnc(CSc2c[nH]c3ccccc23)cc1N1CCCCC1 [Example 40, 3-[(5-methyl-4-piperidino-2-pyridyl)methylthio]indole] |  |  |  | 2.84 |  |  |  |  |  |
| COc1ccc2[nH]c(SCc3cc(N4CCCCC4)c(C)cn3)cc2c1 [Example 21, 5-methoxy-2-[(5-methyl-4-piperidino-2-pyridyl)methylthio]indole] |  |  |  | 14.6 |  |  |  |  |  |
| Cc1ccc2[nH]c(SCc3cc(N4CCCCC4)c(C)cn3)cc2c1 [Example 5, 5-methyl-2-[(5-methyl-4-piperidino-2-pyridyl)methylthio]indole] | 11 | 18 | 56 | 8.59 |  |  |  |  |  |
